The source of these data is PMC2675279 (The Journal of general virology, 2009).

The subject of the assay is splenocytes from BALB/c mice infected with tk--HSV-2. Description: IFN-γ ELISPOT, splenocytes after intravaginal tk--HSV-2 infection. Particulars: splenocytes from individual BALB/c mice after non-lethal intravaginal infection with live attenuated HSV-2, single peptides at 1 μg mL^-1 (Concanavalin A 2.5 μg mL^-1), means of duplicates. The format is cell-based.

For the substance Concanavalin A [reference compound], the “SFU per 10^6 responder cells, tk--HSV-2 infected mice” value (shortened to “SFU per 10^6 responder cells”) was “TNTC ^‡”.

Take LLYWPGVRALLGR [UL47 369-381]: the “SFU per 10^6 responder cells” value is 21 SFU per 10^6 responder cells.

In the case of HTALATVTLKYAL [UL47 509-521], the “SFU per 10^6 responder cells” value is on record as 25 SFU per 10^6 responder cells.

Regarding YAGRMTYIATGAL [UL47 389-401], the “SFU per 10^6 responder cells” value is recorded as 43 SFU per 10^6 responder cells.
